Where no end group is shown, it is not given here.
Assays:
[1] = system: VREF (ATCC 51559); type: cell-based, vancomycin-resistant Enterococcus faecium; conditions: broth microdilution in MHB, 37 °C, 24 h, 100% inhibition of growth
Experimental: (§1) The antibacterial efficacy of the synthesized peptides was evaluated by determining the minimal inhibitory concentrations (MICs) against six standard bacterial strains and five drug-resistant bacterial strains using the Clinical and Laboratory Standards Institute (CLSI) microdilution method. Melittin served as the positive control.
(§2) The minimal inhibitory concentrations (MICs) of the peptides against bacterial strains were determined using a modified broth-microdilution method in accordance with the National Committee for Clinical Laboratory Standards (NCCLS) guidelines. Overnight cultures were diluted in cation-adjusted Mueller–Hinton Broth (MHB) to achieve an inoculum density of 2 × 10^6 CFU/mL. A two-fold serial dilution of the peptide solution (100 μL) was introduced into microtiter plates, followed by the addition of 100 μL of bacterial suspension. The plates were then incubated at 37 °C for 24 h to determine the MICs. Wells containing only culture media served as negative controls, while those with added bacteria functioned as positive controls. The MIC, expressed in μM, was defined as the lowest peptide concentration that prevented visible bacterial growth. This protocol was also employed to determine MICs in the presence of physiological salts (150 mM of NaCl, 4.5 mM of KCl, 6 μM of NH4Cl, 1 mM of MgCl2, 2.5 mM of CaCl2, and 4 μM of FeCl3) and 20% human serum to assess the peptides’ efficacy under conditions more closely resembling physiological environments. All experiments were conducted in triplicate and repeated three times independently to ensure reproducibility and statistical significance of the results.

[2] = system: B. subtilis (KCTC 3068); type: cell-based, Bacillus subtilis; conditions: broth microdilution in MHB, 37 °C, 24 h, 100% inhibition of growth
Experimental: as §1, §2

[3] = system: S. aureus (KCTC 1621); type: cell-based, Staphylococcus aureus; conditions: broth microdilution in MHB, 37 °C, 24 h, 100% inhibition of growth
Experimental: as §1, §2

[4] = system: S. epidermidis (KCTC 1917); type: cell-based, Staphylococcus epidermidis; conditions: broth microdilution in MHB, 37 °C, 24 h, 100% inhibition of growth
Experimental: as §1, §2

[5] = system: sheep red blood cells (sRBCs); assay: Hemolytic activity assay; type: cell-based; conditions: 4% (v/v) sheep red blood cells in PBS, 1 h, 37 °C; 1 to 256 μM tested
Experimental: To assess toxicity in mammalian cells, we evaluated the hemolytic activity of the peptides on sheep red blood cells (sRBCs). […] The therapeutic index (TI), a measure commonly employed to evaluate the cell selectivity of antibacterial agents, was calculated as the ratio of the concentration causing 10% hemolysis of sRBCs (HC10) to the GM [19, 20, 21, 22].
The hemolytic activity of the peptides was tested through hemolysis assay of sheep red blood cells (sRBCs). The sRBCs were diluted in PBS to achieve a 4% (v/v) concentration. Subsequently, 100 μL of peptide solutions, ranging from 1 to 256 μM, was dispensed into a 96-well plate containing an equal volume of the erythrocyte suspension. After incubating for 1 h at 37 °C and centrifuging at 1000× g for 10 min, 100 μL of the supernatant was transferred to a new 96-well plate. Hemoglobin release was quantified using a microplate reader at a wavelength of […]. The percentage of hemolysis was calculated using percentage hemolysis = 100 × [[…]], where A represents the absorbance of the peptide-treated sample at 540 nm, A0 corresponds to the absorbance value representing 0% hemolysis in PBS, and At corresponds to the absorbance value representing 100% hemolysis in 0.1% Triton X-100.

Row | Compound | Minimal Inhibitory Concentration (MIC) [1] | Minimal Inhibitory Concentration (MIC) [2] | Minimal Inhibitory Concentration (MIC) [3] | Minimal Inhibitory Concentration (MIC) [4] | HC10 (peptide concentration that caused 10% hemolysis) [5]
1 | CC[C@H](C)[C@H](NC(=O)[C@H](CCCCN)NC(=O)[C@H](CCCCN)NC(=O)[C@H](Cc1ccccc1)NC(=O)[C@H](CC(C)C)NC(=O)[C@H](CCCCN)NC(=O)[C@@H](N)CCCCN)C(=O)N[C@@H](CC(C)C)C(=O)N[C@@H](CCCCN)C(=O)N[C@@H](Cc1c[nH]c2ccccc12)C(=O)N[C@@H](CC(C)C)C(N)=O [BP4] | 16 µM | 4 µM | 4 µM | 8 µM | >256 µM
2 | KKLFKKILKWW-NH2 [BP12] | 128 µM | 8 µM | 4 µM | 4 µM | >256 µM
3 | CC(C)C[C@H](NC(=O)[C@H](Cc1ccc(O)cc1)NC(=O)[C@H](CCCCN)NC(=O)[C@H](CC(C)C)NC(=O)[C@H](Cc1c[nH]c2ccccc12)NC(=O)[C@H](CCCCN)NC(=O)[C@H](CCCCN)NC(=O)[C@H](Cc1ccccc1)NC(=O)[C@H](CC(C)C)NC(=O)[C@H](CCCCN)NC(=O)[C@@H](N)CCCCN)C(N)=O [BP2] | 128 µM | 8 µM | 4 µM | 2 µM | >256 µM
4 | KKLWKKWLKYW-NH2 [BP14] | 64 µM | 4 µM | 2 µM | 2 µM | >256 µM
5 | KKLWKKIWKYW-NH2 [BP15] | 64 µM | 4 µM | 2 µM | 4 µM | >256 µM
6 | KKLWKKIWKYL-NH2 [BP7] | 32 µM | 4 µM | 2 µM | 2 µM | >256 µM
7 | KKLFKKWWKWL-NH2 [BP16] | 64 µM | 16 µM | 16 µM | 16 µM | >256 µM
8 | KKLFKKWLKYW-NH2 [BP10] | 128 µM | 16 µM | 8 µM | 8 µM | >256 µM
9 | CC[C@H](C)[C@H](NC(=O)[C@H](CCCCN)NC(=O)[C@H](CCCCN)NC(=O)[C@H](Cc1c[nH]c2ccccc12)NC(=O)[C@H](CC(C)C)NC(=O)[C@H](CCCCN)NC(=O)[C@@H](N)CCCCN)C(=O)N[C@@H](CC(C)C)C(=O)N[C@@H](CCCCN)C(=O)N[C@@H](Cc1ccc(O)cc1)C(=O)N[C@@H](CC(C)C)C(N)=O [BP1] | 64 µM | 8 µM | 8 µM | 8 µM | >256 µM
10 | KKLFKKWWKYL-NH2 [BP9] | 64 µM | 16 µM | 8 µM | 4 µM | >256 µM
11 | CC[C@H](C)[C@H](NC(=O)[C@H](CCCCN)NC(=O)[C@H](CCCCN)NC(=O)[C@H](Cc1ccccc1)NC(=O)[C@H](CC(C)C)NC(=O)[C@H](CCCCN)NC(=O)[C@@H](N)CCCCN)C(=O)N[C@@H](Cc1c[nH]c2ccccc12)C(=O)N[C@@H](CCCCN)C(=O)N[C@@H](Cc1ccc(O)cc1)C(=O)N[C@@H](CC(C)C)C(N)=O [BP3] | 64 µM | 16 µM | 8 µM | 8 µM | >256 µM

Reference: article PMC11596392, “Enhanced Antibacterial, Anti-Inflammatory, and Antibiofilm Activities of Tryptophan-Substituted Peptides Derived from Cecropin A-Melittin Hybrid Peptide BP100” (Molecules, 2024)
